Test results reported in US6495571B1, “Pyridine compounds, use and preparation thereof” (Southern Research Institute, priority 1999, dated 2002).
Read-outs that look alike come from different tables or passages of the source.

Columns and labels:
[1] = test system: P388/BCNU (carmustine-resistant) leukemia; assay: Antitumor activity against IP-implanted P388/BCNU leukemia
[2] = test system: human MX-1 mammary tumor (ic, 10^6 cells); assay: In vivo antitumor activity, i.c.-implanted MX-1 xenograft; conditions: for Median % ILS (dying mice only): Days 1-5
[3] = test system: NCI-H82 small cell lung tumor; assay: In vivo antitumor activity, sc NCI-H82 xenograft; design: species or system Athymic mice (Ncr-nu)
[4] = test system: HT29 human colon tumor; assay: In vivo antitumor activity, sc HT29 xenograft; design: species or system Athymic mice (Ncr-nu)
[5] = test system: P388/CPA (cyclophosphamide-resistant) leukemia; format: in vivo, CD2F1 female mice; conditions: for 50-DAY SURV./TOTAL / % ILS / APPROX. NET LOG10 CHANGE IN TUMOR BURDEN AT END OF Rx: Q1D × 5 (1)
[6] = test system: MCF7 human mammary tumor; assay: In vivo antitumor activity, sc MCF7 xenograft; design: species or system Athymic mice (Ncr-nu)
[7] = test system: P388/L-PAM (melphalan-resistant) leukemia; conditions: for activity in this tumor model (in words): mouse, in vivo
[8] = test system: CAKI-1 human renal tumor; assay: In vivo antitumor activity, sc CAKI-1 xenograft; design: species or system Athymic mice (Ncr-nu)
[9] = test system: SF-295 CNS tumor; assay: In vivo antitumor activity, sc SF-295 xenograft; design: species or system Athymic mice (Ncr-nu); conditions: IP 90 mg/kg/dose, Days 9-13
[10] = test system: ZR-75-1 human mammary tumor; assay: In vivo antitumor activity, sc ZR-75-1 xenograft; design: species or system Athymic mice (Ncr-nu)
[11] = test system: human MX-1 mammary tumor (sc, 30-40 mg fragments); assay: In vivo antitumor activity, s.c.-implanted MX-1 xenograft; design: species or system Athymic mice (Ncr-nu)
[12] = test system: NCI-H460 nonsmall cell lung tumor; assay: In vivo antitumor activity, sc NCI-H460 xenograft; design: species or system Athymic mice (Ncr-nu); conditions: IP 90 mg/kg/dose, Days 6-10
[13] = test system: P388/0 murine leukemia
[14] = test system: UISO-BCA-1 human mammary tumor; assay: In vivo antitumor activity, sc UISO-BCA-1 xenograft; design: species or system Athymic mice (Ncr-nu); conditions: IP 90 mg/kg/dose, Days 16-20
[15] = test system: U251 human CNS tumor; assay: In vivo antitumor activity, sc U251 xenograft; design: species or system Athymic mice (Ncr-nu)
[16] = test system: OVCAR-5 ovarian tumor; assay: In vivo antitumor activity, sc OVCAR-5 xenograft; design: species or system Athymic mice (Ncr-nu); conditions: IP 90 mg/kg/dose, Days 12-16
[17] = test system: SK-MEL-28 melanoma; assay: In vivo antitumor activity, sc SK-MEL-28 xenograft; design: species or system Athymic mice (Ncr-nu); conditions: IP 90 mg/kg/dose, Days 8-12
[18] = 14C-penclomedine, tumor-bearing rats; cited from earlier work
[19] = dogs; cited from earlier work
[20] = Cytotoxicity in vitro; format: cell-based
[21] = rats; cited from earlier work
[22] = one hour infusion for 5 consecutive days, patients; cited from earlier work
[23] = IP 60.0 mg/kg/dose, Q1D × 5 (1)
[24] = IP 90.0 mg/kg/dose, Q1D × 5 (1)
[25] = IP 135.0 mg/kg/dose, Q1D × 5 (1)
[26] = highest nontoxic doses evaluated, versus DM-PEN
[27] = highest nontoxic doses evaluated, versus PEN
[28] = oral (gavage) 135 mg/kg/dose, Days 13-17
[29] = optimal doses (LD10 or less), schedule QD1-5, administered LP.

Which results are given for COc1nc(C(Cl)(Cl)Cl)c(Cl)c(OC(C)=O)c1Cl [DM-A-PEN]?
50-DAY SURV./TOTAL [1, 23]: 1/6; % ILS [1, 23]: +44%; APPROX. NET LOG10 CHANGE IN TUMOR BURDEN AT END OF Rx [1, 23]: 0; MEDIAN DAY OF DEATH [1, 23]: 13.0; 50-DAY SURV./TOTAL [1, 24]: 0/6; % ILS [1, 24]: +77%; APPROX. NET LOG10 CHANGE IN TUMOR BURDEN AT END OF Rx [1, 24]: −2.3; 50-DAY SURV./TOTAL [1, 25]: 0/6; APPROX. NET LOG10 CHANGE IN TUMOR BURDEN AT END OF Rx [1, 25]: −4.1; Lethality of the dosage (LD mark beside % ILS) [1, 25]: LD17; more active than DM-PEN by log cell kill [1, 26]: 1.5 log cell kill; more active than PEN by log cell kill [1, 27]: 3.5 log cell kill; Median % ILS (dying mice only) ([2]; IP 60 mg/kg/dose): +60%; Median % ILS (dying mice only) ([2]; oral (gavage) 135 mg/kg/dose): +88%; T-C ([3]; IP 60 mg/kg/dose, Days 13-17): 7.2 days; Tumor-Free-Surv/Total ([3]; IP 60 mg/kg/dose, Days 13-17): 0/5; activity (in words) ([3]; s.c.-implanted): moderate to modest activity; T-C ([4]; IP 90 mg/kg/dose, Days 14-18): 5.8 days; Tumor-Free-Surv/Total ([4]; IP 90 mg/kg/dose, Days 14-18): 0/5; activity (in words) ([4]; s.c.-implanted): moderate to modest activity; 50-DAY SURV./TOTAL ([5]; IP 60.0 mg/kg/dose): 0/6; % ILS ([5]; IP 60.0 mg/kg/dose): +54%; APPROX. NET LOG10 CHANGE IN TUMOR BURDEN AT END OF Rx ([5]; IP 60.0 mg/kg/dose): −1.1; 50-DAY SURV./TOTAL ([5]; IP 90.0 mg/kg/dose): 0/6; % ILS ([5]; IP 90.0 mg/kg/dose): +86%; APPROX. NET LOG10 CHANGE IN TUMOR BURDEN AT END OF Rx ([5]; IP 90.0 mg/kg/dose): −3.1; 50-DAY SURV./TOTAL ([5]; IP 135.0 mg/kg/dose): 0/6; APPROX. NET LOG10 CHANGE IN TUMOR BURDEN AT END OF Rx ([5]; IP 135.0 mg/kg/dose): −5.7; more active than DM-PEN by log cell kill [5, 26]: 4.6 log cell kill; more active than PEN by log cell kill [5, 27]: 7.4 log cell kill; T-C ([6]; IP 60 mg/kg/dose, Days 14-18): 7.1 days; Tumor-Free-Surv/Total ([6]; IP 60 mg/kg/dose, Days 14-18): 0/5; activity (in words) ([6]; s.c.-implanted): moderate to modest activity; 50-DAY SURV./TOTAL [7, 23]: 0/6; % ILS [7, 23]: +14%; APPROX. NET LOG10 CHANGE IN TUMOR BURDEN AT END OF Rx [7, 23]: +1.2; 50-DAY SURV./TOTAL [7, 24]: 0/6; % ILS [7, 24]: +14%; APPROX. NET LOG10 CHANGE IN TUMOR BURDEN AT END OF Rx [7, 24]: +1.2; 50-DAY SURV./TOTAL [7, 25]: 0/6; % ILS [7, 25]: +35%; APPROX. NET LOG10 CHANGE IN TUMOR BURDEN AT END OF Rx [7, 25]: −0.8; Lethality of the dosage (LD mark beside % ILS) [7, 25]: LD17; MEDIAN DAY OF DEATH [7, 25]: 19.8; more active than PEN or DM-PEN by log cell kill ([7]; highest nontoxic doses evaluated, versus PEN or DM-PEN): 0.2-0.3 log cell kill; activity in this tumor model (in words) [7]: none of the three showed significant activity; T-C ([8]; IP 90 mg/kg/dose, Days 19-23): 8.4 days; Tumor-Free-Surv/Total ([8]; IP 90 mg/kg/dose, Days 19-23): 0/5; activity (in words) ([8]; s.c.-implanted): moderate to modest activity; T-C [9]: 0.7 days; Tumor-Free-Surv/Total [9]: 0/5; Tumor-Free-Surv/Total ([10]; IP 60 mg/kg/dose, Days 10-14): 0/5; Tumor-Free-Surv/Total ([10]; IP 90 mg/kg/dose, Days 8-12): 0/5; activity (in words) ([10]; s.c.-implanted): moderate to modest activity; T-C ([11]; IP 60 mg/kg/dose, Days 14-18): >38.3 days; Tumor-Free-Surv/Total ([11]; IP 60 mg/kg/dose, Days 14-18): 4/5; T-C ([11]; IP 60 mg/kg/dose, Days 15-19): >37.2 days; Tumor-Free-Surv/Total ([11]; IP 60 mg/kg/dose, Days 15-19): 3/5; T-C ([11]; IP 90 mg/kg/dose, Days 12-16): >41.0 days; Tumor-Free-Surv/Total ([11]; IP 90 mg/kg/dose, Days 12-16): 5/5; IP dosage marked (LD50) ([11]; IP, Days 15-19, sc MX-1 bearing mice): 60 (LD50) mg/kg/dose; T-C [11, 28]: >38.5 days; Tumor-Free-Surv/Total [11, 28]: 5/5; T-C [12]: -0.6 days; Tumor-Free-Surv/Total [12]: 0/5; 50-DAY SURV./TOTAL [13, 23]: 0/6; % ILS [13, 23]: +72%; APPROX. NET LOG10 CHANGE IN TUMOR BURDEN AT END OF Rx [13, 23]: −3.1; 50-DAY SURV./TOTAL [13, 24]: 0/6; % ILS [13, 24]: +95%; APPROX. NET LOG10 CHANGE IN TUMOR BURDEN AT END OF Rx [13, 24]: −5.0; 50-DAY SURV./TOTAL [13, 25]: 0/6; % ILS [13, 25]: +150%; APPROX. NET LOG10 CHANGE IN TUMOR BURDEN AT END OF Rx [13, 25]: ca −6.8; Lethality of the dosage (LD mark beside % ILS) [13, 25]: LD33; more active than DM-PEN by log cell kill [13, 26]: 1.9 log cell kill; more active than PEN by log cell kill [13, 27]: 0.4 log cell kill; T-C [14]: -2.4 days; Tumor-Free-Surv/Total [14]: 0/5; Tumor-Free-Surv/Total ([15]; IP 90 mg/kg/dose, Days 19-23): 0/5; activity (in words) ([15]; s.c.-implanted): moderate to modest activity; T-C [16]: 4.0 days; Tumor-Free-Surv/Total [16]: 0/5; T-C [17]: 0.7 days; Tumor-Free-Surv/Total [17]: 0/5

With COc1nc(C(Cl)(Cl)Cl)c(Cl)c(OC)c1Cl [PEN, 3,5-dichloro-2,4-dimethoxy-6-(trichloromethyl)pyridine] as the molecule, how does the “50-DAY SURV./TOTAL” value [1, 23] read?
Its value is 0/6.

What about the “% ILS” value [1, 23] of the same molecule?
The value was −6%.

And the “50-DAY SURV./TOTAL” value [1, 24]?
The value was 0/6.

What about the “% ILS” value [1, 24] of the same molecule?
Its value is 0%.

And the “MEDIAN DAY OF DEATH” value [1, 24]?
The value was 9.0.

And the “50-DAY SURV./TOTAL” value [1, 25]?
Its value is 0/6.

What about the “% ILS” value [1, 25] of the same molecule?
The value was “+27%”.

What about the cures ([2]; Table 2 conditions) of the same molecule?
The cures was “not”.

And the “Median % ILS (based on dying mice only)” value [2, 29]?
Its value is 88%.

And the Survivors [2, 29]?
Its Survivors is 0/5.

What about the “radioactive species in the brain” value [18] of the same molecule?
The value was “predominant radioactive species in the brain”.

What about the “plasma penclomedine levels associated with severe emesis and seizures” value [19] of the same molecule?
The value was “above 30 μM”.

And the “50-DAY SURV./TOTAL” value ([5]; IP 60.0 mg/kg/dose)?
Its value is 0/6.

What about the “% ILS” value ([5]; IP 60.0 mg/kg/dose) of the same molecule?
The value was −5%.

And the “50-DAY SURV./TOTAL” value ([5]; IP 90.0 mg/kg/dose)?
Its value is 0/6.

What about the “% ILS” value ([5]; IP 90.0 mg/kg/dose) of the same molecule?
The value was −5%.

And the “50-DAY SURV./TOTAL” value ([5]; IP 135.0 mg/kg/dose)?
The value was 0/6.

And the “% ILS” value ([5]; IP 135.0 mg/kg/dose)?
The value was −5%.

What about the “activity as cytotoxic agents in vitro” value [20] of the same molecule?
Its value is “inactive”.

What about the “50-DAY SURV./TOTAL” value [7, 23] of the same molecule?
The value was 0/6.

What about the “50-DAY SURV./TOTAL” value [7, 24] of the same molecule?
Its value is 0/6.

What about the “50-DAY SURV./TOTAL” value [7, 25] of the same molecule?
The value was 0/6.

What about the “activity in this tumor model (in words)” value [7] of the same molecule?
The value was “none of the three showed significant activity”.

And the “neurotoxicity (muscle tremors, incoordination, convulsions, reduced activity)” value [21]?
The value was “Dose related neurotoxicity”.

And the “50-DAY SURV./TOTAL” value [13, 23]?
The value was 0/6.

What about the “50-DAY SURV./TOTAL” value [13, 24] of the same molecule?
The value was 0/6.

And the “APPROX. NET LOG10 CHANGE IN TUMOR BURDEN AT END OF Rx” value [13, 24]?
The value was −0.8.

And the “50-DAY SURV./TOTAL” value [13, 25]?
The value was 0/6.

What about the “APPROX. NET LOG10 CHANGE IN TUMOR BURDEN AT END OF Rx” value [13, 25] of the same molecule?
Its value is −4.8.

What about the “neurotoxicity (dysmetria, ataxia, vertigo)” value [22] of the same molecule?
Its value is “principal dose limiting toxicity”.
